One experiment concerns human keratinocytes. Particulars: cited from earlier work.
Experiment [1] deals with choline acetyltransferase (ChAT) activity in dissociated rat embryonic spinal cord culture. As to the kind of experiment: Spinal Cord ChAT Activity Assay. The note with it: ChAT measured after 48 hours. It is filed as cell-based.
For experiment [2], the system named is ChAT activity of basal forebrain cultures. Description: Basal Forebrain ChAT Activity Assay. The experiment is classed as cell-based, rat. The method, boiled down: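 Basal forebrain neurons from E17–18 rat embryos were Dispase-dissociated and plated at 5×10^4 cells/well on poly-ornithine/laminin. Cultures were kept in serum-free N2 medium with 0.05% BSA at 37° C. ChAT activity was measured 5 days after plating as the read-out for compound-induced increase.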

Experiment [3] concerns chick dorsal root ganglion neurons. As to the kind of experiment: DRG Neurite Outgrowth Assay. It is filed as cell-based. The note with it: compound concentration 200 nM; 48 hours. Here is the method:
Fused pyrrolocarbazoles promoted nerve fiber (i.e., neurite) outgrowth in explant (i.e., primary) cultures of chick dorsal root ganglion neurons. Dorsal root ganglion (i.e., DRG) nerve fiber outgrowth was increased when a fused pyrrolocarbazole was added to cultures at a concentration of 200 nM (Table IV). Control cultures consisted of: 1) no added NGF or fused pyrrolocarbazole ("Control"), or 2) 50 ng/ml NGF, a neurotrophin known to promote neurite extension in DRG cultures ("NGF").
Methods: Dorsal root ganglia were dissected from chick embryos (embryonic day 9) and individual ganglia were plated on poly-1-ornithine and laminin coated plates. A fused pyrrolocarbazole or 50ng/ml NGF was each added to independent cultures after allowing a 1-2 hour cell attachment period. Explants were cultured for 48 hours in serum-free N2 medium supplemented with 0.05% BSA (Bottenstein et al., PNAS USA 76:514-517 (1979)). Cultures were maintained at 37° C. in a humidified atmosphere, 5% CO2 /95% air. Nerve fiber outgrowth was assessed by the density and length of neurites. It should be apparent to those skilled in the art that neurite extension assays are semi-quantitative and involve a visual comparison between control and experimental neuronal cell cultures (Alberts et al., Molecular Biology of the Cell, 2ed. Garland Publishing, Inc., New York (1989).

In experiment [4] the test system is NT-3 induced ChAT activity of rat basal forebrain cultures. As to the kind of experiment: Enhancement of Neurotrophin (NT-3) Activity Assay, ChAT activity in basal forebrain cultures. The experiment is classed as cell-based. As to the method: Fused pyrrolocarbazoles were tested for the ability to enhance the activity of the neurotrophin NT-3 in basal forebrain cultures. ChAT activity was assayed as a measure of cholinergic neuron function and survival. The concentration of NT-3 (100 ng/ml) used in these experiments increased ChAT activity over control cultures (untreated with NT-3 or a fused pyrrolocarbazole) by 140%.
Methods. Basal forebrain cultures were prepared from embryonic rats (embryonic day 17) and dissociated with the neutral protease Dispase™. Cells were plated at a density of 4×10^5 cells/cm^2 on poly-1-ornithine coated plastic tissue culture plates in a mixture of DMEM and F12 media (50/50 v/v GIBCO) supplemented with 5% horse serum and 0.5% fetal bovine serum. Cells were incubated at 37° C. in a humidified atmosphere of 5% CO2 /95% air for 5 days. ChAT activity was measured as described in Example III(A)(1).
Recombinant rat NT-3 was produced by using a recombinant baculovirus expression vector under the control of the polyhedron virus promoter (Fraser, In Vitro Cell. and Dev. Biol. 25:225-235 (1989)). The plasmid pXM-NT3 (Hallbook et al., Neuron 6:845-858 (1991), which contained the rat NT-3 cDNA clone, was provided by Dr. Ira Black (University of Medicine and Dentistry of New Jersey, Piscataway, N.J.). NT-3 cDNA was subcloned into the transfer vector pVL1392 (In Vitrogen Corp., San Diego, Calif.) for recombinant virus production. Recombinant baculovirus was produced as described in Meyer et al. (Meyer at al., J. Neurochem 62:825-833 (1994)).

Another experiment addresses protein kinase C. As to the kind of experiment: PKC Activity Inhibition Assay. It is filed as biochemical. Here is the method:
Fused pyrrolocarbazoles inhibited the activity of protein kinase C (Table VI). The protein kinase C assay has been disclosed (Murakata et al., U.S. Pat. No. 4,923,986; Kikkawa et al., J. Biol. Chem. 257:13341-13348 (1982)). The assay was performed with several concentrations of fused pyrrolocarbazoles. The concentration at which protein kinase C was 50% inhibited (IC50) was determined.

Another experiment addresses trkA tyrosine kinase (Homo sapiens, UniProt P04629). Description: trkA Tyrosine Kinase Activity Inhibition Assay (ELISA). The experiment is classed as biochemical. Particulars: 16 μM ATP, 37° C., 15 min; read-out: INHIBITION OF trkA KINASE IC50. (An ELISA detects its analyte on a solid surface through an enzyme-linked reagent.)
The test system of a further experiment is protein kinase C ("PKC"). Particulars: cited from earlier work.
A further experiment relates to trk tyrosine kinase. The note with it: cited from earlier work.
In experiment [5] the test system is transcription of IFNα genes. The note with it: not associated with the inhibition of protein kinase C; cited from earlier work.

What is called IC50 is the concentration that inhibits the measured activity by half.

Chain of trkA tyrosine kinase (P04629 33-796): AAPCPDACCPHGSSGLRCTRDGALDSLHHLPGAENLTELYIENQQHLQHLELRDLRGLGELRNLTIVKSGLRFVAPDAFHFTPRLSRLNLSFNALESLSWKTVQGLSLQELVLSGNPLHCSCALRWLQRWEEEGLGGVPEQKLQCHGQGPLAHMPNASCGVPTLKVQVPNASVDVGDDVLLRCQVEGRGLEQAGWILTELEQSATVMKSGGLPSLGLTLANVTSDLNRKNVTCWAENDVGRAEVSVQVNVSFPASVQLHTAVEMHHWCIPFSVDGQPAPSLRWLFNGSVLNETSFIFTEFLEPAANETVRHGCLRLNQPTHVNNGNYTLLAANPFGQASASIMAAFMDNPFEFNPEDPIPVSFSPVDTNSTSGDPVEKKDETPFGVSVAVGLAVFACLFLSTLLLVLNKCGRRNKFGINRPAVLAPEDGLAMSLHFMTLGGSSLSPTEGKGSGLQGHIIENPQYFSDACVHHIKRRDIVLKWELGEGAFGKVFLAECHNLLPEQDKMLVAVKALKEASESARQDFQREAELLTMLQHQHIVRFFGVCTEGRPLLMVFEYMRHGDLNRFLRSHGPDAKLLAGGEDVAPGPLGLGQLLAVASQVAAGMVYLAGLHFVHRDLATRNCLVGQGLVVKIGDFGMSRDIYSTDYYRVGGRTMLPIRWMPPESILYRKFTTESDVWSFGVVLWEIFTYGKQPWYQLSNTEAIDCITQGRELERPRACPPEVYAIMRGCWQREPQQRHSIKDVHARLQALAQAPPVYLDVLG
Method for trkA tyrosine kinase: These compounds were then tested for the ability to inhibit substrate phosphorylation by the trkA tyrosine kinase.
Plates were washed three times with TBST, followed by two washes with TBS (TBST sans Tween-20). Fused pyrrolocarbazoles were then added at various concentrations to a reaction mixture (50 mM HEPES, pH 7.4, 5 mM MnCl2, 5 mM MgCl2, 140 mM NaCl, 16 μM ATP, and 15 ng trkA in a total volume of 1001 μL.). As a negative control, 100 mM EDTA was included in the reaction solution. The plates were then incubated at 37° C. for 15 min. The detection antibody, monoclonal anti-phosphotyrosine antibody (UBI), was added at a dilution of 1:2000 in TBST, and incubated for 1 hour at 37° C. Plates were then washed three times with TBST, followed by a 1 hour incubation at 37° C. with alkaline phosphatase-labeled goat anti-mouse IgG (1:2000 in TBST (Bio-Rad)). After washing three times with TBST followed by two washes with TBS, a colored product was produced by using NADPH as substrate for alkaline phosphatase, and the coupled reactions of diaphorase and alcohol dehydrogenase (GIBCO-BRL ELISA amplification system). The colored product was read at 490 nm in a microplate reader (Biotek).

Consider “NGF: a neurotrophin known to promote neurite extension in DRG cultures”, for which the “proliferation of human keratinocytes” value with human keratinocytes is listed as “stimulates the proliferation of human keratinocytes in culture”.
As to `O=C1NC(=O)c2c1c1c(c3[nH]c4ccccc4c23)Cc2ccccc2-1` [Compound I-1, 6H, 12H, 13H-Indeno[2,3-a]pyrrolo[3,4-c]carbazole-5,7(5H, 7H))-dione], the “Spinal Cord ChAT Activity, % of Control, untreated cultures” value in [1] is 148 % of Control. Moreover, the “ChAT Activity (% of Control)” value in experiment [2] (100 nM), in [2] (250 nM) and in [2] (500 nM) was “inactive” in each case. The “DRG Neurite Outgrowth” value in [3] is recorded as “modest number of neurites”. Besides, the “ChAT activity in the absence of NT-3” value in [4] (compound added alone to basal forebrain neurons, no NT-3) is on record as “no effect on ChAT activity”. Besides, the “ChAT activity in the presence of NT-3” value in experiment [4] (with 100 ng/ml NT-3) was “enhanced ChAT activity”. For the same compound, the values for the IC50 against protein kinase C and on trkA tyrosine kinase were 70 nM and > 1000 nM, respectively.
As for `COC(=O)[C@@]1(O)C[C@H]2O[C@]1(C)n1c3ccccc3c3c4c(c5c6ccccc6n2c5c31)C(=O)NC4` [Compound K-252a], the “inhibition of protein kinase C” value in the experiment with protein kinase C ("PKC") was “inhibitor”. Besides, in the experiment with trk tyrosine kinase, the “inhibition of trk tyrosine kinase” value is recorded as “inhibitor”. Besides, in experiment [5], the “inhibition of transcription of IFNα genes” value is “inhibit the transcription of IFNα genes”. Also, the “NGF-stimulated proliferation of human keratinocytes” value in the experiment with human keratinocytes is recorded as “prevents such proliferation”.

Source of the values: patent publication US5594009A, “Fused pyrrolocarbazoles” (priority 1995, dated 1997).
